Assay results from PubChem BioAssay AID651630 (Sanford-Burnham Center for Chemical Genomics, 2012).
pIC50: −log10 of the molar value. Calls of active or inactive are those of the source.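 The calls were made as follows: active = lipid-stain IC50 at or below a set limit, with nuclear-stain toxicity IC50 at least five times higher; inactive = the rest.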

What was measured:
DAPI = test: triacylglycerol accumulation inhibitor potency, dose response, cell-based, panel, Nile Red and DAPI fluorescence, H9c2 (AID 651630); conditions: H9c2 cells, DAPI nuclear fluorescence (cytotoxicity counter-readout), oleic acid;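 also: cells exposed to compound overnight before fixation and staining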
TAG = test: as above; conditions: H9c2 cells, Nile Red TAG fluorescence, oleic acid

Row | pIC50 (TAG; mean of runs) | pIC50 (TAG; run 1) | pIC50 (TAG; run 2) | IC50 (TAG; mean of runs) | SMILES | IC50 cytotoxicity (DAPI nuclear signal decrease) (DAPI; mean of runs) | IC50 cytotoxicity (DAPI nuclear signal decrease) (DAPI; run 1) [µM] | IC50 cytotoxicity (DAPI nuclear signal decrease) (DAPI; run 2) [µM]
1 | 4.96 | 4.94 | 4.98 | – | COc1ccc(-c2cnnc(N/N=C/c3ccc(-c4ccc([N+](=O)[O-])cc4)o3)n2)cc1 | > 25 µM (inactive) | > 25 | > 25
2 | 4.89 | 4.80 | 5.00 | – | Cc1ccccc1NC(=O)CSc1nc(Nc2ccccc2)nc(N2CCOCC2)n1 | > 25 µM (inactive) | > 25 | > 25
3 | – | < 4.60 | 5.02 | – | CCOc1ccccc1NC(=O)c1cccc(NC(=O)c2ccco2)c1 | > 25 µM (inactive) | > 25 | > 25
4 | 5.04 | 5.07 | 5.01 | – | Cc1ccc(Cc2nnc(SCC(=O)Nc3ccccc3)n(N)c2=O)cc1 | > 25 µM (inactive) | > 25 | > 25
5 | 5.00 | 5.04 | 4.95 | – | CCOc1ccc(NC(=O)CN(C)C(=O)c2cc(-c3ccc(OC)cc3)nc3ccccc23)cc1OCC | > 25 µM (inactive) | > 25 | > 25
6 | – | < 4.60 | < 4.60 | > 25 µM (inactive) | CC(CC(=O)Nc1ccc2c(c1)c(=O)n(C)n2-c1ccc2ccccc2c1)C(F)(F)F (configuration not stated) | > 25 µM (inactive) | > 25 | > 25
7 | – | < 4.60 | < 4.60 | > 25 µM (inactive) | COc1ccc(-c2cc3nc(-c4ccccc4)cc(N4CCN(C(=O)c5ccccc5)CC4)n3n2)cc1 | > 25 µM (inactive) | > 25 | > 25
8 | 5.27 | 5.31 | 5.23 | – | O=C(CC1C[C@H](C(=O)N2CCCCC2)[C@@]2(CCc3ccccc3)c3[nH]c4ccccc4c3CCN2C1=O)NCc1cccc(C(F)(F)F)c1 (some centres not stated) | > 25 µM (inactive) | > 25 | > 25
9 | – | < 4.60 | < 4.60 | > 25 µM (inactive) | CCN(CC)CCC(c1ccc2c(c1)OCO2)c1c(OC)cc(OC)c2c(-c3ccccc3)cc(=O)oc12 (configuration not stated) | > 25 µM (inactive) | > 25 | > 25
10 | – | 4.76 | 4.67 | 19.5 µM (inactive) | COc1ccc(-c2ccc3[nH]c4c(c3c2)CCN2C(=O)[C@@H]([C@H](C)O)[C@@H](N(C)C(=O)Nc3cc(Cl)cc(Cl)c3)C[C@@H]42)cc1 | > 25 µM (inactive) | > 25 | > 25

Continued, compound first:

Row | SMILES | pIC50 (TAG; mean of runs) | pIC50 (TAG; run 1) | pIC50 (TAG; run 2) | IC50 (TAG; mean of runs) | IC50 cytotoxicity (DAPI nuclear signal decrease) (DAPI; mean of runs) | IC50 cytotoxicity (DAPI nuclear signal decrease) (DAPI; run 1) [µM] | IC50 cytotoxicity (DAPI nuclear signal decrease) (DAPI; run 2) [µM]
11 | CCOC(=O)Nc1ccc2c(c1)C(=NNC(=S)NC)c1ccccc1-2 | – | < 4.60 | < 4.60 | > 25 µM (inactive) | – | > 25 | 9.75
12 | Cc1ccc(NC(=S)N(CCCN2CCCC2)Cc2cccn2Cc2ccc(Cl)cc2)cc1Cl | – | < 4.60 | < 4.60 | > 25 µM (inactive) | – | > 25 | 23.1
13 | O=C(Nc1ccccc1)c1ccc(NCC2CCCO2)c(S(=O)(=O)N2CCOCC2)c1 (configuration not stated) | – | < 4.60 | < 4.60 | > 25 µM (inactive) | > 25 µM (inactive) | > 25 | > 25
14 | CC1CC2(C)Oc3ccccc3CC2C(C)C1CNCCCN(C)C (configuration not stated) | – | < 4.60 | < 4.60 | > 25 µM (inactive) | 18.9 µM (inactive) | 18.4 | 19.5
15 | COC(=O)c1ccc(Oc2cc(C)nc(SC)n2)cc1 | – | < 4.60 | 4.85 | – | > 25 µM (inactive) | > 25 | > 25
16 | COc1ccc(OC)c(N(CCN2C(=O)c3ccccc3C2=O)C(=O)CCl)c1 | – | < 4.60 | < 4.60 | > 25 µM (inactive) | > 25 µM (inactive) | > 25 | > 25
17 | O=C(/C=C/c1ccc(OCCCF)cc1)NCc1ccc(Cl)c(Cl)c1 | – | < 4.60 | 4.67 | – | > 25 µM (inactive) | > 25 | > 25
18 | CCCCNC(=O)C(=O)Nc1ccc2c(c1)N(S(=O)(=O)c1cccs1)CCC2 | – | < 4.60 | 5.02 | – | > 25 µM (inactive) | > 25 | > 25
19 | Cc1c(C(=O)OCC(C)C)[nH]c2c1C(=O)CC(c1cccs1)C2 (configuration not stated) | – | < 4.60 | < 4.60 | > 25 µM (inactive) | > 25 µM (inactive) | > 25 | > 25
20 | Cc1cccn2c(=O)c3cc(C(=O)NC4CCCC4)c(=N)n(C4CCCC4)c3nc12 | 4.92 | 5.09 | 4.80 | – | > 25 µM (inactive) | > 25 | > 25
21 | CCC1(O)CC2CN(CCc3c([nH]c4ccccc34)C(C(=O)OC)(c3cc4c(cc3OC)N(C=O)C3C(O)(C(=O)OC)C(OC(C)=O)C5(CC)C=CCN6CCC43C65)C2)C1 (configuration not stated) | – | > 6.11 | < 4.60 | – | > 25 µM (inactive) | > 25 | > 25
22 | COc1ccc(CCNc2nnc(Sc3nnnn3-c3ccccc3)s2)cc1OC | – | 4.99 | < 4.60 | – | > 25 µM (inactive) | > 25 | > 25
23 | Nc1ccccc1Nc1cccc(C(F)(F)F)c1 | 4.95 | 5.02 | 4.89 | – | > 25 µM (inactive) | > 25 | > 25
24 | Cc1nc(N/N=C/c2cccc(F)c2)cc(N2CCOCC2)n1 | 4.86 | 4.96 | 4.78 | – | > 25 µM (inactive) | > 25 | > 25
25 | CC(C)NC(=O)N(C)C[C@H]1Oc2cc(C#Cc3ccc(F)cc3)ccc2S(=O)(=O)N([C@H](C)CO)C[C@H]1C | 5.08 | 4.96 | 5.24 | – | > 25 µM (inactive) | > 25 | > 25
